We go through one molecule from patent US12497396B2, “Nitrogen-containing heterocyclic derivatives, method therefor and application therefor as inhibitors of KRAS G12C for the treatment of cancers” (SHANGHAI HANSOH BIOMEDICAL CO., LTD., priority 2019, dated 2025).

Molecules are shown by their SMILES.

Test [1] concerns NCI-H358 cells (KRAS G12C mutant cell line). The test is described as follows: Inhibition of NCI-H358 cell proliferation (CellTiter-Glo, 72 h). The format is cell-based, human. The note with it: Homo sapiens. The procedure, abridged:
(§1)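 Cells were seeded overnight at 37 °C, 5% CO2, then exposed to serially diluted compound (DMSO/medium) alongside a solvent control for 72 h. Viability was read by CellTiter-Glo luminescence, and IC50 was derived by nonlinear regression of inhibition rate against concentration.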
For orientation: ATP-based viability assays read luminescence as a measure of living cells.

In test [2] the test system is Mia PaCa-2 cells (KRAS G12C mutant cell line). Description: Inhibition of Mia PaCa-2 cell proliferation (CellTiter-Glo, 72 h). The test is classed as cell-based, human. The note with it: Homo sapiens. Put shortly: as §1
Test [3] has as its target T1, human KRAS G12C protein (Homo sapiens, UniProt P01116, G12C).
T1 construct: purchased Beijing SinoBiological Co., Ltd. 12259-H07E2
The test is described as follows: Thermal shift: melting temperature of KRAS G12C protein. The test is classed as binding. The procedure, abridged: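 5.37 μM (final) human KRAS G12C in […] HEPES pH 7.5, 1 mM DTT, 150 mM NaCl, 5×SYPRO Orange, incubated 1 h at room temperature in the dark. Melt curve run from 25 to 95° C at 0.03° C/s. ΔTm = treated Tm minus DMSO control Tm.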

Test [4] has as its system phosphorylated ERK in KRAS G12C mutant cells Mia PaCa-2. Description: Inhibition of phosphorylated ERK level in Mia PaCa-2 cells (LANCE Ultra). The format is cell-based. Conditions: Homo sapiens, 2 hours, read-out: Mia PaCa-2 pERK IC50. The text has this:
As a preferred embodiment of the present disclosure, the method for detecting the inhibitory activity of phosphorylated ERK level is as follows: through cell culture, adding different concentrations of compound solutions to the cultured cells, continuing the culture for a period of time, lysing the cells, followed by centrifugation and […]; • further, the method of cell culture is: adjusting the cells to a suitable cell concentration with a complete medium, preferably the cell concentration is 1×10^6/mL, and spreading the cell suspension on a well plate for culture.
When Mia PaCa-2 cells were cultured to the appropriate fusion level, Mia PaCa-2 cells were collected, and the cell density was adjusted to 1×10^6/mL using complete culture medium, the cell suspension was spread on a 96-well plate, 50 μL per well, and placed adherent to the wall in a 37° C., 5% CO2 incubator overnight, compound solutions with different concentrations were prepared using DMSO and complete culture medium, a solvent control was set, the compound solution was added to a 96-well plate, 25 μL per well, and placed in a 37° C., 5% CO2 incubator for 2 hours of continuous culture, the supernatant was discarded from the cell culture plate, 50 μL of lysis solution was added to each well, and lysing was performed for 30 minutes by shaking at room temperature, then the mixture was centrifuged at 1000 rpm for 1 minute, 15 μL of supernatant was transferred to 384 well plate, 5 μL of detection mixture (Eu-labeled anti-ERK1/2 (T202-Y204) antibody with final concentration of 0.5 nM and ULight labeled anti-ERK1/2 antibody with final concentration of 5 nM) was added to each well, centrifuged at 1000 rpm for 1 minute and mixed uniformly, the reaction was carried out overnight at room temperature, the plate was read with BioTek Synergy H1, and the signal values was detected at 620 nm and 665 nm emission wavelengths by time-resolved fluorescence program.
The ratio of the signal values at 665 nm and 620 nm emission wavelength were calculated, and the ratio was used to calculate the inhibition rate, the concentration and the inhibition rate were fitted to a nonlinear regression curve using Graphpad Prism software, then the IC50 value was obtained.
(Time-resolved FRET reads energy transfer from a long-lived donor to a nearby acceptor.)

Turning to `C=CC(=O)N1CCN(c2nc(=O)n(-c3c(SC)ccnc3C(C)C)c3nc(-c4c(N)cccc4F)c(F)cc23)[C@@H](C)C1` [Embodiment 134, 4-((S)-4-acryloyl-2-methylpiperazin-1-yl)-7-(2-amino-6-fluorophenyl)-6-fluoro-1-(2-isopropyl-4-(methylthio)pyridin-3-yl) pyrido [2,3-d] pyrimidin-2 (1H)-one], the IC50 – broadly, the concentration that gives 50% inhibition – was 23 nM in test [1], 30 nM in test [2] and 30 nM in test [4]. For the same molecule, the “Tm (° C.)” value in test [3] (KRAS G12C protein 5.37 μM with compound 10 μM, 1 hour incubation) turned out to be 64.4 °C. Also, in test [3] (compound 10 μM, Tm minus Tm of DMSO solvent control), the ΔTm – broadly, the shift of the melting midpoint relative to a reference – at 10 µM turned out to be 15.8 °C.
